Data as given in ChEMBL document CHEMBL2034860, “Cytotoxic heterocyclic triterpenoids derived from betulin and betulinic acid” (Bioorg Med Chem, 2012).

system: not listed separately; experiment: Solubility of the compound in water based media; assay type: physicochemical; details: buffer

Row | solubility | SMILES
1 | Insoluble | CC1(C)CC[C@]23CC[C@]4(C)[C@H](CC[C@@H]5[C@@]6(C)Cc7conc7C(C)(C)[C@@H]6CC[C@]54C)[C@H]2[C@H]1OC3
2 | Insoluble | CC1(C)CC[C@]23CC[C@]4(C)[C@H](CC[C@@H]5[C@@]6(C)Cc7cnn(-c8ccccc8)c7C(C)(C)[C@@H]6CC[C@]54C)[C@H]2[C@H]1OC3
3 | Insoluble | CC1(C)CC[C@]23CC[C@]4(C)[C@H](CC[C@@H]5[C@@]6(C)Cc7sc(N)nc7C(C)(C)[C@@H]6CC[C@]54C)[C@H]2[C@H]1OC3
4 | Insoluble | CC1(C)CC[C@]23CC[C@]4(C)[C@H](CC[C@@H]5[C@@]6(C)Cc7c[nH]nc7C(C)(C)[C@@H]6CC[C@]54C)[C@H]2[C@H]1OC3
5 | Insoluble | CC1(C)CC[C@]23CC[C@]4(C)[C@H](CC[C@@H]5[C@@]6(C)Cc7sc(Br)nc7C(C)(C)[C@@H]6CC[C@]54C)[C@H]2[C@H]1OC3

system: CCRF-CEM; experiment: Cytotoxicity against human CCRF-CEM cells after 72 hrs by MTT assay; assay type: functional, cell-based; details: not given

Row | SMILES | IC50 [µM]
6 | CC1(C)CC[C@]23CC[C@]4(C)[C@H](CC[C@@H]5[C@@]6(C)CC(Br)(Br)C(=O)C(C)(C)[C@@H]6CC[C@]54C)[C@H]2[C@H]1OC3 | > 250
7 | CC1(C)CC[C@]23CC[C@]4(C)[C@H](CC[C@@H]5[C@@]6(C)CC(Br)C(=O)C(C)(C)[C@@H]6CC[C@]54C)[C@H]2[C@H]1OC3 (mixture of isomers) | > 250
8 | CC1(C)CC[C@]23CC[C@]4(C)[C@H](CC[C@@H]5[C@@]6(C)C=C(N7CCOCC7)C(=O)C(C)(C)[C@@H]6CC[C@]54C)[C@H]2[C@H]1OC3 | 226
9 | CC(C)[C@@H]1CC[C@]2(C(=O)O)CC[C@]3(C)[C@H](CC[C@@H]4[C@@]5(C)C/C(=C/O)C(=O)C(C)(C)[C@@H]5CC[C@]43C)[C@@H]12 | 61
10 | CCOC(=O)C1=C(O)C(C)(C)[C@@H]2CC[C@]3(C)[C@H](CC[C@@H]4[C@H]5[C@H]6OC[C@@]5(CCC6(C)C)CC[C@]43C)[C@@]2(C)C1 | > 250
11 | CC1(C)CC[C@]23CC[C@]4(C)[C@H](CC[C@@H]5[C@@]6(C)C=C(O)C(=O)C(C)(C)[C@@H]6CC[C@]54C)[C@H]2[C@H]1OC3 | 25
12 | CC1(C)CC[C@]23CC[C@]4(C)[C@H](CC[C@@H]5[C@@]6(C)Cc7conc7C(C)(C)[C@@H]6CC[C@]54C)[C@H]2[C@H]1OC3 | > 250
13 | CC1(C)CC[C@]23CC[C@]4(C)[C@H](CC[C@@H]5[C@@]6(C)Cc7cnn(-c8ccccc8)c7C(C)(C)[C@@H]6CC[C@]54C)[C@H]2[C@H]1OC3 | 250
14 | C=C(C)[C@@H]1CC[C@]2(C(=O)O)CC[C@]3(C)[C@H](CC[C@@H]4[C@@]5(C)CC(C(=O)OCC)=C(O)C(C)(C)[C@@H]5CC[C@]43C)[C@@H]12 | 161
15 | CCOC(=O)C1=C(O)C(C)(C)[C@@H]2CC[C@]3(C)[C@H](CC[C@@H]4[C@H]5[C@H](C(C)C)CC[C@]5(C(=O)O)CC[C@]43C)[C@@]2(C)C1 | 142
16 | CC1(C)CC[C@]23CC[C@]4(C)[C@H](CC[C@@H]5[C@@]6(C)Cc7sc(N)nc7C(C)(C)[C@@H]6CC[C@]54C)[C@H]2[C@H]1OC3 | 85
17 | CC1(C)CC[C@]23CC[C@]4(C)[C@H](CC[C@@H]5[C@@]6(C)C/C(=C/O)C(=O)C(C)(C)[C@@H]6CC[C@]54C)[C@H]2[C@H]1OC3 | > 250
18 | CC1(C)CC[C@]23CC[C@]4(C)[C@H](CC[C@@H]5[C@@]6(C)Cc7c[nH]nc7C(C)(C)[C@@H]6CC[C@]54C)[C@H]2[C@H]1OC3 | 210
19 | CC1(C)CC[C@]23CC[C@]4(C)[C@H](CC[C@@H]5[C@@]6(C)Cc7sc(Br)nc7C(C)(C)[C@@H]6CC[C@]54C)[C@H]2[C@H]1OC3 | 150
